# How the values were obtained:
# [1] = system: IκBα phosphorylation by RANKL in RAW264.7 cells; test: IκBα phosphorylation after RANKL, western blot; format: cell-based; conditions: RAW264.7, RANKL 15 ng/ml
# Procedure: SUDHL-6, RAW264.7, and MEF cells were treated with NSC697923 or DMSO (control) for 1 hour before being stimulated with the PMA (100 ng/ml), RANKL (15 ng/ml), and LPS (1.5 μg/ml) for the indicated times. The levels of IκBα phosphorylation in the indicated samples were assessed by western blotting.
# [2] = biological target: T1, Ubc13-Uev1A (Homo sapiens, UniProt P61088); test: In vitro ubiquitination assay, Ubc13-Uev1A; format: biochemical
# T1 construct: purchased Boston Biochem Inc E2-600 (Ubc13); E2-662 (Uev1A)
# T1 sequence (P61088 whole entry): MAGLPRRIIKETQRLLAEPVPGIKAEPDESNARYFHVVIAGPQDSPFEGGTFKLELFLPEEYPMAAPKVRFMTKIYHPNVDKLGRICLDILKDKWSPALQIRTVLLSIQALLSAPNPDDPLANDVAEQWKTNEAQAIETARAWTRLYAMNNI
# T1 sequence (Q13404 whole entry partner): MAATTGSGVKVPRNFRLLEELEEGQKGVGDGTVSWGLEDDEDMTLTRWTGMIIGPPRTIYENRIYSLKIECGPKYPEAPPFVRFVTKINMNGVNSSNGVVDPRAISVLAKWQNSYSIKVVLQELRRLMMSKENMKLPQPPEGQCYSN
# Procedure: The in vitro reaction, which contains purified E1, ubiquitin, Ubc13, and Uev1A, was carried out with or without the indicated concentrations of NSC697923. The reaction products were analyzed by a ubiquitin-specific antibody on western blots. FIG. 4B is the same as FIG. 4A, except that purified GST-TRAF6 was included as the E3 in the complete reaction as indicated. […] The assay was carried out as in FIG. 4B, except that UbcHSc instead of Ubc13-Uev1A was used as the E2 in the ubiquitination reaction.
# The purified recombinant proteins used in the in vitro ubiquitination reactions were all purchased from Boston Biochem Inc, except GST-TRAF6, which was expressed and purified as described above. The reactions were carried out at 37° C. for 40 minutes in a buffer containing 50 mM Tris-HCl, pH 7.5, 5 mM MgCl2, 200 μM ATP, 120 μM ubiquitin (U-100H), and 0.1 μM E1 (E-304). For the Ubc13-mediated ubiquitin chain synthesis, the reaction mixture includes 0.2 μM Ubc13 (E2-600) and […] Uev1A (E2-662) with or without GST-TRAF6 as indicated. For UbcHSc-catalyzed ubiquitination, UbcHSc (E2-627), instead of Ubc13 and Uev1A, was used in the reaction. […] The reactions were terminated by the addition of an equal volume of SDSPAGE sample buffer, and the products were analyzed by western blotting with a ubiquitin specific antibody.
# [3] = biological target: T2, Ubc13 in OCI-Ly10 cells (Homo sapiens, UniProt P61088); test: Ubc13~Ub conjugate formation in DLBCL cells, western blot; format: cell-based; conditions: 3 hours
# T2 construct: endogenous in cells; host or cells: OCI-Ly10
# T2 sequence (P61088 whole entry): as the sequence (P61088 whole entry) above
# Procedure: (§1) OCI-Ly10 cells were treated with the indicated concentrations of NSC697923 for 3 hours. The levels of Ubc13˜Ub conjugate were analyzed by western blotting using a Ubc13-specific antibody as described in FIG. 4B. […] OCI-Ly10 cells were treated with DMSO (0.1%) or the indicated concentrations of NSC697923 for 3.5 hours. The levels of the indicated proteins were analyzed by western blotting with the respective antibodies.
# [4] = system: constitutive NF-κB signaling in OCI-Ly10 cells; test: Constitutive NF-κB signaling in ABC DLBCL cells, western blot; format: cell-based; conditions: 3.5 hours
# Procedure: as §1
# [5] = system: primary DLBCL cells; test: Apoptosis of primary DLBCL cells, annexin V; format: cell-based; conditions: primary cells from two DLBCL patients, 24 hours
# Procedure: The primary cancer cells, prepared from two DLBCL patients and grown in culture medium for seven days, were seeded at 4.5×10^5 cells/mL and treated with the indicated concentrations of NSC697923 for 24 hours. The apoptotic cells were analyzed as described in FIG. 7C. Shown are the averages from two independent experiments.
# (§2) Apoptosis was assayed using the 7AAD/annexin V apoptosis kit (BD Bioscience) as previously described (Kim et al., “Protein Kinase C-Associated Kinase is Required for NF-kappaB Signaling and Survival in Diffuse Large B-Cell Lymphoma Cells,” Blood 111:1644-1653 (2008), which is hereby incorporated by reference in its entirety). Analysis of the cell cycle distribution of the treated cells was carried out with propidium iodide (PI) and BrdU double staining as previously described (DeRan et al., “Assessing G1-to-S-Phase Progression after Genotoxic Stress,” Methods Mol. Biol. 782:221-230 (2011) and Su et al., “DNA Damage Induces Downregulation of Histone Gene Expression Through the G1 Checkpoint Pathway,” EMBO. J. 23:1133-1143 (2004), each of which is hereby incorporated by reference in its entirety).
# [6] = system: p53 signaling in OCI-Ly10 cells; test: Nuclear p53 and p21 expression, western blot; format: cell-based; conditions: 3.5 hours
# Procedure: OCI-Ly10 cells were treated with indicated concentrations of NSC697923 for 3.5 hours. The level of p53 in the nuclear extract and the level of p21 in the whole cell lysates were analyzed by western blotting.
# [7] = system: K63-linked ubiquitination and repair protein recruitment in U2OS cells; test: DNA double-strand break focus formation after γ-irradiation; format: cell-based; conditions: 1 μM, γ-irradiated 10 Gy
# Procedure: Osteosarcoma U2OS cells were pretreated with 1 μM NSC697923 for 1 hour before γ-irradiated (10 Gy). 30 minutes after irradiation, the cells were fixed and stained with the monoclonal antibody FK2, which recognizes protein-conjugated, but not free, ubiquitin and marks the foci formed by K63-linked ubiquitinated proteins at sites of DSBs. […] U2OS cells were treated as described in FIG. 13A except that the focus formation of the indicated proteins is detected with their respective antibodies.
# [8] = system: breast cancer MDA-MB231 cells; test: Cell viability, trypan blue exclusion assay; format: cell-based; conditions: 24 hours
# Procedure: (§3) 1×10^6 cells were plated in 10 cm plates and cultured overnight. The indicated concentrations of NSC697923 were then added into culture medium for 24 hours before the cell viability was analyzed by trypan blue exclusion assay. Shown are the averages from three independent experiments.
# as §2
# [9] = system: osteosarcoma U2OS cells; test: Cell viability, trypan blue exclusion assay; format: cell-based; conditions: 24 hours
# Procedure: as §3, §2
structure (smiles),measurement,setting,value
"Cc1ccc(S(=O)(=O)c2ccc([N+](=O)[O-])o2)cc1 [NSC697923, 2-nitro-5-tosylfuran]",IκBα phosphorylation by RANKL,[1],inhibited
same,polyubiquitin chain formation catalyzed by Ubc13-Uev1A,"[2]; E1, ubiquitin, Ubc13, Uev1A, without E3",inhibited polyubiquitin chain formation catalyzed by Ubc13-Uev1A complex in a dose-dependent manner
same,ubiquitin chain formation catalyzed by Ubc13-Uev1A together with TRAF6,[2]; GST-TRAF6 as E3,similarly inhibited by NSC697923 in a dose-dependent manner
same,formation of the Ubc13~Ub conjugate in cells,[3],inhibited formation of the Ubc13˜Ub conjugate
same,expression of Mc1-1,[4],is inhibited
same,expression of p100,[4],is inhibited
same,phosphorylation of IKK,[4],inhibited phosphorylation
same,phosphorylation of IκBα,[4],inhibited phosphorylation
same,Annexin-positive (apoptotic) cells,[5],increase in Annexinpositive (apoptotic) cells
same,nuclear level of p53 protein,[6],increased
same,p21 expression,[6],increased
same,FK2 focus formation,[7],inhibition of FK2 focus formation
same,recruitment of 53BP1 to sites of DNA double-strand breaks,[7],inhibits recruitment
same,recruitment of BRCA1 to sites of DNA double-strand breaks,[7],inhibits recruitment
same,toxic effects on proliferation and survival compared to DLBCL cells,[8],much less toxic effects
same,toxic effects on proliferation and survival compared to DLBCL cells,[9],much less toxic effects

# Source: US9458123B2, “Methods, pharmaceutical compositions, therapeutic systems, and compounds for treating B cell malignancies” (University of Rochester, priority 2012, dated 2016)
